Measurements as given in BindingDB's records for doi:10.1007/s10822-022-00478-x (Roche Innovation Center Basel, F. Hoffmann-La Roche Ltd., 2022).

Molecular target: cAMP and cAMP-inhibited cGMP 3',5'-cyclic phosphodiesterase 10A (Homo sapiens, UniProt Q9Y233)
Assay: PDE10A assay
Procedure, shortened: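 Human PDE10A (2 ng/well) preincubated 15 min RT with compound in HEPES pH 7.5, 10 mM MgCl2, BSA, then reacted 15 min with 50 nM [3H]cGMP/cGMP substrate. Stopped with Y-Si SPA beads; bound radioactivity counted, IC50 from four-parameter logistic, pIC50 = −log10(IC50).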

SMILES	IC50 [nM]
CNC(=O)c1cn(C)c(CCc2nc3c(C)ncc(C)n3n2)n1 [Roche-Dataset for PDE10A, Compound 675]	228
O=C(Nc1nc2cccnc2s1)c1nc(C2CC2)ccc1Nc1cncnc1 [Roche-Dataset for PDE10A, Compound 811]	20
Cn1ncc(C(=O)N2CCC2)c1C(=O)Nc1ccn2cc(-c3cccc(OCCCF)c3)nc2n1 [Roche-Dataset for PDE10A, Compound 28]	7.34
Cn1ncc(C(=O)N2CCC2)c1C(=O)Nc1ccn2nc(-c3cccc(OCCF)n3)nc2c1 [Roche-Dataset for PDE10A, Compound 66]	5.36
CC(C)(C)CCNC(=O)c1nc(C2CC2)cnc1Nc1cncnc1 [Roche-Dataset for PDE10A, Compound 1022]	2340
Cn1cc(-c2cccc(CCc3nc(-c4ccccc4)cn3C)n2)cn1 [Roche-Dataset for PDE10A, Compound 296]	6500
Cn1ncc2c1C(=O)N(c1ccn3nc(-c4cccc(F)c4)nc3c1)C2=O [Roche-Dataset for PDE10A, Compound 217]	51
O=C(NCC1(c2ccccc2)CCOCC1)c1nc(C2CC2)cnc1Nc1cncnc1 [Roche-Dataset for PDE10A, Compound 924]	1160
CCn1nc(C)cc1C(=O)Nc1cc2nc(-c3ccccc3)[nH]c2cc1C(=O)NCCOC [Roche-Dataset for PDE10A, Compound 256]	14
Cc1c(Cl)cc(Cl)c2nc(CCc3nccn3C)nn12 [Roche-Dataset for PDE10A, Compound 972]	166
CN(CCO)c1nc(OCc2nc(-c3ccccc3)cn2C)nc2ccc(Cl)cc12 [Roche-Dataset for PDE10A, Compound 19]	3.09
CN(c1cncnc1)c1ccc(C2CC2)nc1C(=O)Nc1cc(-c2ccccn2)nn1C [Roche-Dataset for PDE10A, Compound 360]	5600
CCOC(=O)c1cnn(C)c1C(=O)Nc1ccn2nc(N3CCCC3)nc2c1 [Roche-Dataset for PDE10A, Compound 353]	21
Cc1nc2ccccc2nc1CCc1nc(-c2ccccc2)cn1CC1CC1 [Roche-Dataset for PDE10A, Compound 62]	9.29
CCOC(=O)c1cnn(C)c1C(=O)N(C)c1ccn2nc(-c3ccccc3)nc2c1 [Roche-Dataset for PDE10A, Compound 825]	10000
CCN(C)C(=O)c1cnn(C)c1C(=O)Nc1ccn2cc(-c3cccc(OCC(=O)OC)c3)nc2n1 [Roche-Dataset for PDE10A, Compound 20]	7.93
Cc1cc(Cl)c(C)n2nc(/C=C/c3nc(N4CCCC4)nn3C)nc12 [Roche-Dataset for PDE10A, Compound 300]	0.33
Cc1ncc(C)n2nc(/C=C/c3nc(N4CCCN4C)nn3C)nc12 [Roche-Dataset for PDE10A, Compound 911]	747
Cc1ncc(Br)c2nc(CCc3nc(N4CCCC4)nn3C)nn12 [Roche-Dataset for PDE10A, Compound 658]	34
O=C(Nc1cc(F)c(F)cc1C(=O)N1CCC1)c1nc(C2CC2)cnc1Nc1cncnc1 [US8703768, 291]	28
Cc1ncc(C)n2nc(CCc3nc(-n4cccn4)nn3C)nc12 [Roche-Dataset for PDE10A, Compound 836]	169
O=C(NCCc1cnc(-c2ccccc2)[nH]1)c1nc(C2CC2)ccc1Nc1cncnc1 [Roche-Dataset for PDE10A, Compound 102]	2.11

SMILES	IC50 [nM]
CNC(=O)c1cc2[nH]c(-c3ccccc3)nc2cc1NC(=O)c1nc(C2CC2)ccc1Nc1cncnc1 [Roche-Dataset for PDE10A, Compound 621]	0.09
Cc1nc(CCc2nc(-c3ccccc3)cn2C)nc2ccccc12 [Roche-Dataset for PDE10A, Compound 129]	5.25
COc1ccc(Cn2ccc(NC(=O)c3c(C(=O)N4CCC4)cnn3C)n2)cc1 [Roche-Dataset for PDE10A, Compound 977]	79
O=C(c1nc(C2CC2)cnc1Nc1cncnc1)N1CCN(c2ccccc2F)CC1 [Roche-Dataset for PDE10A, Compound 975]	6170
CCN(C)C(=O)c1ncccc1NC(=O)c1nc(C2CC2)cnc1Nc1cncnc1 [US8703768, 199]	5.93
CC(C)n1nc(NC(=O)c2nc(C3CC3)ccc2Nc2cncnc2)cc1C(=O)N(C)C [Roche-Dataset for PDE10A, Compound 1013]	793
O=C(Nc1ccc2[nH]c(-c3ccccc3)nc2c1)c1nc(C2CC2)ccc1Nc1cncnc1 [Roche-Dataset for PDE10A, Compound 423]	0.24
CNC(=O)c1cc(Cl)c(C)n2nc(CCc3nc(N4CCCC4)nn3C)nc12 [Roche-Dataset for PDE10A, Compound 273]	6160
O=C(N[C@@H]1C[C@@H](CO)N(c2ccc(Cl)cn2)C1)c1nc(C2CC2)ccc1Nc1cncnc1 [Roche-Dataset for PDE10A, Compound 118]	2.35
COC[C@H]1CCCN1c1n[nH]c(CCc2nc3c(C)ncc(C)n3n2)n1 [Roche-Dataset for PDE10A, Compound 376]	8.4
COCCn1ccc(NC(=O)c2c(C(=O)N3CCC3)cnn2C)n1 [Roche-Dataset for PDE10A, Compound 1067]	327
Cn1nc(-c2ccccn2)cc1NC(=O)c1cccn(C)c1=O [Roche-Dataset for PDE10A, Compound 710]	4410
COc1cccc(NC(=O)c2nc(C3CC3)cnc2Nc2cncnc2)n1 [Roche-Dataset for PDE10A, Compound 1011]	49
Cc1c(Cl)cc(OC(F)F)c2nc(CCc3nc(N4CCCC4)n(C)n3)nn12 [Roche-Dataset for PDE10A, Compound 206]	0.54
Cc1ccc2nc(/C=C/c3nc(N4CCCC4)nn3C)nn2c1C [Roche-Dataset for PDE10A, Compound 375]	8.73
COc1ccccc1-c1cn2c(n1)C[C@H](NC(=O)c1c(C(=O)N(C)C)cnn1C)CC2 [Roche-Dataset for PDE10A, Compound 473]	8.21
Cn1ncc(C(=O)N2CCC2)c1C(=O)Nc1cn(-c2cccc(C(F)(F)F)n2)cn1 [Roche-Dataset for PDE10A, Compound 802]	3190
CN(CCO)C(=O)c1cnn(C)c1C(=O)Nc1ccn2nc(N3CCOCC3)nc2c1 [Roche-Dataset for PDE10A, Compound 276]	20
CCOC(=O)c1cnn(C)c1C(=O)Nc1ccn2nc(C(C)C)nc2c1 [Roche-Dataset for PDE10A, Compound 761]	1450
COC[C@H]1CCCN1c1nc(CCc2nc3c(C)ncc(C)n3n2)n(C)n1 [Roche-Dataset for PDE10A, Compound 249]	12
O=C(Nc1cccc(OC(F)(F)F)c1)c1nc(C2CC2)cnc1Nc1cncnc1 [Roche-Dataset for PDE10A, Compound 874]	31
CNC(=O)c1cc(F)c(F)cc1NC(=O)c1nc(C2CC2)cnc1Nc1cncnc1 [US8703768, 288]	0.74

SMILES	IC50 [nM]
CCN(C)c1cnc(Nc2cncnc2)c(C(=O)Nc2cnn(C)c2C(=O)NC)n1 [US8703768, 311]	19
CC(C)n1ncc2cc(CCc3nc(-c4ccccc4)cn3C)ncc21 [Roche-Dataset for PDE10A, Compound 48]	859
O=C(Nc1ccnn1-c1ccccn1)c1nc(C2CC2)ccc1Nc1cncnc1 [Roche-Dataset for PDE10A, Compound 435]	3.43
O=C(Nc1cc(Cl)ncc1Br)c1ccc2cc(-c3ccccc3)nn2c1 [Roche-Dataset for PDE10A, Compound 399]	354
Cc1nc2ccccc2nc1CCc1nc(-c2ccccc2)cn1-c1ccccn1 [Roche-Dataset for PDE10A, Compound 17]	1.82
Cc1cc(-n2nc(N3CCCC3)nc2CCc2nc3c(C(F)(F)F)cc(Cl)c(C)n3n2)ccn1 [Roche-Dataset for PDE10A, Compound 34]	1.07
COCc1ccc(Nc2cncnc2)c(C(=O)Nc2cccc(-c3ccn(C)n3)c2)n1 [Roche-Dataset for PDE10A, Compound 790]	5.32
Cn1cc(NC(=O)c2nc(C3CC3)ccc2Nc2cncnc2)c(C(=O)N2CCC2)n1 [US8703768, 30]	33
Cn1ncc(C(=O)N2CCC2)c1C(=O)Nc1ccn(Cc2ccncc2)n1 [Roche-Dataset for PDE10A, Compound 978]	192
COc1ccccc1-c1nc2n(c1Cl)CC[C@@H](NC(=O)c1c(C(=O)N3CCC3)cnn1C)C2 [Roche-Dataset for PDE10A, Compound 362]	188
Cc1ncoc1C(=O)Nc1cc(-c2ccccn2)nn1C [Roche-Dataset for PDE10A, Compound 979]	2670
C/C(=C/c1nc2c(C)ncc(C)n2n1)c1nc(Br)nn1C [Roche-Dataset for PDE10A, Compound 1134]	2260
O=C1CCc2c(NC(=O)c3nc(C4CC4)cnc3Nc3cncnc3)cccc21 [Roche-Dataset for PDE10A, Compound 932]	124
CNC(=O)c1ccc(F)cc1NC(=O)c1nc(C2CC2)cnc1Nc1cncnc1 [US8703768, 292]	0.68
O=C(Nc1cn(-c2ccccn2)cn1)c1nc(C2CC2)ccc1Br [Roche-Dataset for PDE10A, Compound 1003]	434
O=C1c2ccccc2CN1c1ccc2nc(-c3ccccc3)[nH]c2c1 [Roche-Dataset for PDE10A, Compound 307]	371
O=C(N[C@@H]1C[C@H]2CC[C@@H]1C2)c1nc(C2CC2)cnc1Nc1cncnc1 [Roche-Dataset for PDE10A, Compound 1126]	1080
Cc1cccc(-c2cn3c(n2)C[C@H](NC(=O)c2c(C(=O)N(C)C)cnn2C)CC3)c1 [Roche-Dataset for PDE10A, Compound 241]	34
Cn1ncc(C(=O)N2CCC2)c1C(=O)Nc1ccn2nc(-c3cccnc3)nc2c1 [Roche-Dataset for PDE10A, Compound 281]	1.16
Cc1cn2nc(C#Cc3nc(N4CCCC4)nn3C)ccc2n1 [US9617271, 67]	9.21
O=C(Nc1ccn(C2CCCCC2)n1)c1nc(C2CC2)ccc1Nc1cncnc1 [Roche-Dataset for PDE10A, Compound 632]	19
